# Source: patent publication US20150307938A1, “METHOD TO IDENTIFY A NOVEL CLASS OF IMMUNOLOGIC ADJUVANTS” (Lancell, L.L.C., priority 2011, published 2015)
# Test system: skin
# Assay: Affymetrix microarray of skin, DBP-4 hr and analogs vs. untreated; gene selection by log-2 fold change, Wilcoxon, Kendall tau (Tables 8, 9)
# Assay type: in vivo, mouse
# Conditions: mouse, in vivo
smiles,measurement,value
"CCCCOC(=O)c1ccccc1C(=O)OCCCC [DBP, dibutylphthalate]",Nrap NM_198059_at ≧2-Fold change,No
same,Nusap1 NM_133851_at ≧2-Fold change,No
same,Ogfrl1 NM_001081079_at ≧2-Fold change,No
same,Olr1 NM_138648_at ≧2-Fold change,No
same,Otud7a (NM_130880_at) ≧2-Fold change,Yes
same,Oxr1 NM_001130163_at ≧2-Fold change,No
same,Oxr1 NM_001130164_at ≧2-Fold change,No
same,Oxr1 NM_001130165_at ≧2-Fold change,No
same,Oxr1 NM_001130166_at ≧2-Fold change,No
same,Pde4b (NM_019840_at) ≧2-Fold change,Yes
same,Pdk4 (NM_013743_at) ≧2-Fold change,Yes
same,Pgam2 NM_018870_at ≧2-Fold change,No
same,Pigyl NM_001082532_at ≧2-Fold change,No
same,Plaur (NM_011113_at) ≧2-Fold change,Yes
same,Plek (NM_019549_at) ≧2-Fold change,Yes
same,Plscr1 (NM_011636_at) ≧2-Fold change,Yes
same,Pmaip1 (NM_021451_at) ≧2-Fold change,Yes
same,Pparg NM_001127330_at ≧2-Fold change,No
same,Ppih NM_001110129_at ≧2-Fold change,No
same,Prg4 NM_021400_at ≧2-Fold change,No
same,Prss22 (NM_133731_at) ≧2-Fold change,Yes
same,Ptges (NM_022415_at) ≧2-Fold change,Yes
same,Pyy (NM_145435_at) ≧2-Fold change,Yes
same,Rab20 (NM_011227_at) ≧2-Fold change,Yes
same,Ramp3 (NM_019511_at) ≧2-Fold change,Yes
same,Retnla NM_020509_at ≧2-Fold change,No
same,Rffl NM_001007465_at ≧2-Fold change,No
same,Rgs1 (NM_015811_at) ≧2-Fold change,Yes
same,Rn18s NR_003278_at ≧2-Fold change,No
same,Rnf19b (NM_029219_at) ≧2-Fold change,Yes
same,Rpl3l NM_025425_at ≧2-Fold change,No
same,Saa3 (NM_011315_at) ≧2-Fold change,Yes
same,Slc5a1 (NM_019810_at) ≧2-Fold change,Yes
same,Slc7a5 (NM_011404_at) ≧2-Fold change,Yes
same,Slc10a6 (NM_029415_at) ≧2-Fold change,Yes
same,Slc15a3 (NM_023044_at) ≧2-Fold change,Yes
same,Slc25a25 (NM_146118_at) ≧2-Fold change,Yes
same,Slc34a2 (NM_011402_at) ≧2-Fold change,Yes
same,Slc39a8 (NM_026228_at) ≧2-Fold change,Yes
same,Slc39a14 NM_001135151_at ≧2-Fold change,No
same,Slfn2 (NM_011408_at) ≧2-Fold change,Yes
same,Slfn4 (NM_011410_at) ≧2-Fold change,Yes
same,Sln NM_025540_at ≧2-Fold change,No
same,Slpi (NM_011414_at) ≧2-Fold change,Yes
same,Smox (NM_145533_at) ≧2-Fold change,Yes
same,Smpx NM_025357_at ≧2-Fold change,No
same,Stfa3 (NM_025288_at) ≧2-Fold change,Yes
same,Timp1 (NM_011593_at) ≧2-Fold change,Yes
same,Tlr2 (NM_011905_at) ≧2-Fold change,Yes
same,Tnf (NM_013693_at) ≧2-Fold change,Yes
same,Tnfrsf9 NM_001077508_at ≧2-Fold change,No
same,Tnfrsf9 NM_001077509_at ≧2-Fold change,No
same,Tnfrsf12a (NM_013749_at) ≧2-Fold change,Yes
same,Tnni1 NM_021467_at ≧2-Fold change,No
same,Trdn NM_029726_at ≧2-Fold change,No
same,Trf NM_133977_at ≧2-Fold change,No
same,Trp63 NM_001127259_at ≧2-Fold change,No
same,Trp63 NM_001127260_at ≧2-Fold change,No
same,Trp63 NM_001127262_at ≧2-Fold change,No
same,Trp63 NM_001127264_at ≧2-Fold change,No
same,Tslp (NM_021367_at) ≧2-Fold change,Yes
same,Tslp (NR_033206_at) ≧2-Fold change,Yes
same,Ttn NM_028004_at ≧2-Fold change,No
same,Tubb6 (NM_026473_at) ≧2-Fold change,Yes
same,Uap1 (NM_133806_at) ≧2-Fold change,Yes
same,Wbp1 NM_001083922_at ≧2-Fold change,No
same,Wbp1 NM_001083923_at ≧2-Fold change,No
same,Wfdc2 NM_026323_at ≧2-Fold change,No
same,Zc3h12a (NM_153159_at) ≧2-Fold change,Yes
same,Zfp36 (NM_011756_at) ≧2-Fold change,Yes
same,Zfp68 NM_001044747_at ≧2-Fold change,No
same,Zfp187 NM_001013786_at ≧2-Fold change,No
same,Zfp518b NM_001081144_at ≧2-Fold change,No
same,Zfp593 (NM_024215_at) ≧2-Fold change,Yes
same,Zfp943 NM_001025373_at ≧2-Fold change,No
same,≧2-Fold change,No and Yes
same,≧2-Fold change: 1810046J19Rik,No
same,≧2-Fold change: 4933434E20Rik,No
same,≧2-Fold change: Abhd6,No
same,≧2-Fold change: Acad8,No
same,≧2-Fold change: Ak2,No
same,≧2-Fold change: Akr1e1,No
same,≧2-Fold change: Avpr1a,No
same,≧2-Fold change: B4galt1,No
same,≧2-Fold change: Bphl,No
same,≧2-Fold change: Cdkl2,No
same,≧2-Fold change: Cep70,No
same,≧2-Fold change: Cirh1a,No
same,≧2-Fold change: Clec14a,No
same,≧2-Fold change: Commd4,No
same,≧2-Fold change: Cr1l,No
same,≧2-Fold change: Cyth1,No
same,≧2-Fold change: D16Ertd472e,No
same,≧2-Fold change: Dcxr,No
same,≧2-Fold change: Dda1,No
same,≧2-Fold change: Diablo,No
same,≧2-Fold change: Dmap1,No
same,≧2-Fold change: Dnajc4,No
same,≧2-Fold change: Eid1,No
same,≧2-Fold change: Eif6,No
same,≧2-Fold change: Erlec1,No
same,≧2-Fold change: Fam134b,No
same,≧2-Fold change: Fbxo25,No
same,≧2-Fold change: Fgf13,No
same,≧2-Fold change: Flt1,No
same,≧2-Fold change: Fmo5,No
same,≧2-Fold change: Ftsj3,No
same,≧2-Fold change: Gcnt2,No
same,≧2-Fold change: Gmcl1,No
same,≧2-Fold change: Gpn3,No
same,≧2-Fold change: Gstz1,No
same,≧2-Fold change: Gtf2h2,No
same,≧2-Fold change: Gtf3a,No
same,≧2-Fold change: Hsdl2,No
same,≧2-Fold change: Icos,No
same,≧2-Fold change: Ifngr1,No
same,≧2-Fold change: Inpp5d,No
same,≧2-Fold change: Itgax,No
same,≧2-Fold change: Itk,No
same,≧2-Fold change: Krt17,No
same,≧2-Fold change: Map3k14,No
same,≧2-Fold change: Mdp1,No
same,≧2-Fold change: Meis1,No
same,≧2-Fold change: Mkrn3,No
same,≧2-Fold change: Mtcp1,No
same,≧2-Fold change: Mum1,No
same,≧2-Fold change: Myd88,No
same,≧2-Fold change: Nagk,No
same,≧2-Fold change: Ndufaf3,No
same,≧2-Fold change: Nek3,No
same,≧2-Fold change: Nfkb2,No
same,≧2-Fold change: Nicn1,No
same,≧2-Fold change: Nme3,No
same,≧2-Fold change: Ntpcr,No
same,≧2-Fold change: Orc3,No
same,≧2-Fold change: Padi1,No
same,≧2-Fold change: Panx1,No
same,≧2-Fold change: Pfdn2,No
same,≧2-Fold change: Phtf1,No
same,≧2-Fold change: Pigp,No
same,≧2-Fold change: Pkp4,No
same,≧2-Fold change: Plk3,No
same,≧2-Fold change: Polr2g,No
same,≧2-Fold change: Pparg,No
same,≧2-Fold change: Ppp1r7,No
same,≧2-Fold change: Prokr1,No
same,≧2-Fold change: Ptpn1,No
same,≧2-Fold change: Rabgef1,No
same,≧2-Fold change: Rai12,No
same,≧2-Fold change: Rbbp6,No
same,≧2-Fold change: Rpl7l1,No
same,≧2-Fold change: Sema4d,No
same,≧2-Fold change: Siae,No
same,≧2-Fold change: Sirt1,No
same,≧2-Fold change: Slc9a3r1,No
same,≧2-Fold change: Slc30a4,No
same,≧2-Fold change: Slc35a1,No
same,≧2-Fold change: Smarcb1,No
same,≧2-Fold change: Srsf6,No
same,≧2-Fold change: Stx17,No
same,≧2-Fold change: Tmed1,No
same,≧2-Fold change: Tmem208,No
same,≧2-Fold change: Tnfrsf1a,No
same,≧2-Fold change: Tnfrsf9,No
same,≧2-Fold change: Trappc2l,No
same,≧2-Fold change: Tril,No
same,≧2-Fold change: Trim12a,No
same,≧2-Fold change: Trip4,No
same,≧2-Fold change: Trp63,No
same,≧2-Fold change: Trpv2,No
same,≧2-Fold change: Tsn,No
same,≧2-Fold change: Ufc1,No
same,≧2-Fold change: Ulk2,No
same,≧2-Fold change: Wbp1,No
same,≧2-Fold change: Zfp68,No
same,≧2-Fold change: Zfp90,No
same,≧2-Fold change: Zkscan3,No
same,≧2-Fold change: Zkscan6,No
